In data set [1] the test system is murine B16 melanoma. The experiment in a line: Murine B16 melanoma model in vivo. More on the design: species or system mouse (B6D2F1). The following applies: for Survivors: 60-day. As for the experimental part: 1) Murine B16 Melanoma Model
For the B16 melanoma model, the following procedure was used. B6D2F1 mice receive i.p. inocula of B16 murine melanoma brei prepared from B16 tumors growing s.c. in mice (day 0). […] If dosing information for agents is not available, the maximum tolerated dose (MTD) is determined in initial dose finding experiments in non-tumored mice.
The mean survival times of all groups are calculated, and results are expressed as mean survival of treated mice/mean survival of control mice (T/C)×100%. A T/C value of 150 means that the mice in the treated group lived 50% longer than those of the control group; this is sometimes referred to as the increase in life span or ILS value.
Mice that survive for 60 days are considered long-term survivors, or cures, in the B16 model. The universally accepted cut-off for activity in this model, which has been for years by the National Cancer Institute, is T/C=125. Conventional use of B16 over the years has set the following levels of activity: T/C<125, no activity, T/C=125-150, weak activity; T/C=150-200, modest activity; T/C=200-300, high activity; T/C>300, with long term survivors; excellent, curative activity.

Data set [2] concerns the target T1, human placental topoisomerase I (Homo sapiens, UniProt P11387).
T1 construct: purchased TopoGen; host or cells: human placenta
T1 sequence (P11387 1-765): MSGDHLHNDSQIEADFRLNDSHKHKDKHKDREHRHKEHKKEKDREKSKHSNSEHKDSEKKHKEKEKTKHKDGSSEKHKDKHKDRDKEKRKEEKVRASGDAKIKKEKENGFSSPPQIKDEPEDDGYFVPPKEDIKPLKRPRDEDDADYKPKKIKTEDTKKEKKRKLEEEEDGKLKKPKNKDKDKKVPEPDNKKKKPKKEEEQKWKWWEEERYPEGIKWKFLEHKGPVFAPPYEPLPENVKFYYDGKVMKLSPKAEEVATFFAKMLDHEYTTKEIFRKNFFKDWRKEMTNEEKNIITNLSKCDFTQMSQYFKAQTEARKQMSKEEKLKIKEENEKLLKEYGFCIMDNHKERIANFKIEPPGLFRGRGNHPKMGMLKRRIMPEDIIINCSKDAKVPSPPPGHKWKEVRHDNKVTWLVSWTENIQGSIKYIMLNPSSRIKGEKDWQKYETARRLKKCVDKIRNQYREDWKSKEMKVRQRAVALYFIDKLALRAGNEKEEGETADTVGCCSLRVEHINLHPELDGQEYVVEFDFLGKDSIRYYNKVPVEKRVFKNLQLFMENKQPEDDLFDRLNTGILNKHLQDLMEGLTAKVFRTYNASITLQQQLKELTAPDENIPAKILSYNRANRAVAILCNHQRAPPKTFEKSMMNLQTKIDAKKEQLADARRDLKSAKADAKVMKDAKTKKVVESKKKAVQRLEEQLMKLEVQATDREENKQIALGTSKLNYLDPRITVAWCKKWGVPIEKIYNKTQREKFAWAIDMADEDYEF
The experiment in a line: Inhibition of topoisomerase I catalytic activity (relaxation of supercoiled SV40 DNA). Type of data set: biochemical. The following applies: for relaxation of supercoiled DNA: FIG. 18 / FIG. 19, in words; for topoisomerase I inhibitory activity: comparison in words, vs camptothecin; for topoisomerase I inhibition: highest concentration tested (100 μg/mL), in words. The protocol: The topoisomerase I catalytic activity was measured by converting the supercoiled SV40 DNA (Form I) to the relaxed form (Form Io). All reactions were performed in 20 μL reaction buffer (Tris-HCl, 10 mM, pH 7.5; EDTA, 1 mM; NaCl, 100 mM) with 0.25 μg SV40 DNA, 0.5 unit of human placental topoisomerase I (TopoGen) and graded concentrations of the analog tested. The reaction mixtures were incubated at 37° C. for 30 minutes. […] Ten μL of the reaction mixture was loaded onto a 1% agarose gel prepared in TAE buffer containing 2 μg/mL chloroquine; and the electrophoresis was performed at 82 volt for 4.5 hr in the TAE buffer containing 2 μg/mL chloroquine. […] The gels were then stained with 0.5 μg/mL ethidium bromide solution for 30 min or longer (if chloroquine is present during the electrophoresis step), and destained with 5 changes of deionized water. […] The DNA bands (image) on the negative were densitometrically scanned with a Molecular Dynamic Personal Densitometer. The percent inhibition of Toposiomerase I activity is calculated based on the following equation:
% Inhibition=(FSC(E+D) -FSC(E))/(FSC(C)
where FSC(E+D) represents fraction of supercoiled DNA in the presence of enzyme and drug; FSC(E) represents fraction of supercoiled DNA in the presence of enzyme alone; FSC(C) represents fraction of supercoiled DNA in the untreated SV40 DNA; the IC50 value was estimated using the same four-parameter logistic equation described in the in vitro growth inhibition studies.

Where only a bound is given, the exact number is not on record here.

For the molecule `CC[C@@]1(O)C(=O)OCc2c1cc1n(c2=O)Cc2c-1nc1ccccc1c2CO[C@@H]1C=C[C@H](OC(C)=O)[C@@H](COC(C)=O)O1` [HAR4, 7-[4,6-di-O-acetyl-2,3-dideoxy-α-D-erythro-hex-2-enopyranosyl]oxymethylcamptothecin], the cures entry in data set [1] (10 mg/kg) is “one”. In addition, in data set [1] (10 mg/kg i.p. daily×5), the “T/C (mean survival treated/control)” value is 189%, the “Tox Deaths” value is listed as 0/10, the “ΔWeight (%)” value is “+6.6%” and the Survivors is 1/10. Moreover, the cures result in data set [1] (20 mg/kg) is “one”. In data set [1] (20 mg/kg i.p. daily×5), the “T/C (mean survival treated/control)” value stood at 212%, the “Tox Deaths” value is given as 1/10, the “ΔWeight (%)” value is -15.6% and the Survivors is recorded as 1/10. The toxic deaths entry in data set [1] (high dose group) is reported as “one”. In data set [2], the IC50 (commonly the concentration that gives 50% inhibition) was 42.3 µM, the “relaxation of supercoiled DNA” value was “inhibition of relaxation of supercoiled DNA” and the “topoisomerase I inhibitory activity” value was “quite similar to those of camptothecin”.

As to `CC[C@@]1(O)C(=O)OCc2c1cc1n(c2=O)Cc2c-1nc1ccccc1c2CO[C@@H]1C=C[C@H](O[C@H]2O[C@H](COC(C)=O)[C@@H](OC(C)=O)[C@H](OC(C)=O)[C@H]2OC(C)=O)[C@@H](COC(C)=O)O1` [HAR5, 7-[6-O-acetyl-4-O-(2,3,4,6-tetra-O-acetyl-α-D-glucopyranosyl)-2,3-dideoxy-α-D-erythro-hex-2-enopyranosyl]oxymethylcamptothecin], in data set [1] (100 mg/kg), the “60-day survivors (cures)” value was “three”. Moreover, in data set [1] (100 mg/kg i.p. daily×5), the “T/C (mean survival treated/control)” value was found to be 239%, the “Tox Deaths” value was 0/10, the “ΔWeight (%)” value is “+9.0%” and the Survivors is 3/10. For the same molecule, the “60-day survivors (cures)” value in data set [1] (200 mg/kg) is given as “three”. Also, in data set [1] (200 mg/kg i.p. daily×5), the “T/C (mean survival treated/control)” value was determined as 232%, the “Tox Deaths” value is 0/10, the “ΔWeight (%)” value is on record as “+5.9%” and the Survivors was 3/10. Besides, the “efficacy vs. B16” value in data set [1] (among the four analogs, in words) is “highest efficacy vs. B16”. Besides, in data set [2], the IC50 was greater than 114 µM, the “relaxation of supercoiled DNA” value is listed as “inhibition of relaxation of supercoiled DNA” and the “topoisomerase I inhibition” value is on record as “moderately inhibited topoisomerase I activity”.

Regarding `CC[C@@]1(O)C(=O)OCc2c1cc1n(c2=O)Cc2c-1nc1ccccc1c2CO[C@@H]1C=C[C@H](O[C@H]2O[C@H](CO)[C@@H](O)[C@H](O)[C@H]2O)[C@@H](CO)O1` [HAR6, 7-[4-O-(α-D-glucopyranosyl)-2,3-dideoxy-α-D-erythro-hex-2-enopyranosyl]-oxymethylcamptothecin], in data set [1] (100 mg/kg), the “60-day survivors (cures)” value is given as “no cures” and the drug-related deaths result is “one”. Also, in data set [1] (100 mg/kg i.p. daily×5), the “T/C (mean survival treated/control)” value is given as 184%, the “Tox Deaths” value is listed as 1/10, the “ΔWeight (%)” value is given as -13.8% and the Survivors is recorded as 0/10. Also, the weight loss result in data set [1] (100 mg/kg i.p. five day schedule) is given as “approximately 14%”. In addition, in data set [1] (150 mg/kg i.p. daily×5), the “T/C (mean survival treated/control)” value is recorded as 185%, the “Tox Deaths” value is 7/10, the “ΔWeight (%)” value is recorded as -27.2% and the Survivors was 0/10. Moreover, in data set [2], the IC50 is greater than 150 µM, the “relaxation of supercoiled DNA” value was “inhibition of relaxation of supercoiled DNA” and the “topoisomerase I inhibition” value is recorded as “moderately inhibited topoisomerase I activity”.

On to `CC[C@@]1(O)C(=O)OCc2c1cc1n(c2=O)Cc2c-1nc1ccccc1c2CO[C@@H]1C=C[C@H](O)[C@@H](CO)O1` [HAR7, 7-[2,3-dideoxy-α-D-erythro-hex-2-enopyranosyl]-oxymethylcamptothecin], for which, in data set [1] (20 mg/kg), the cures result is “no cures”. Moreover, in data set [1] (20 mg/kg i.p. daily×5), the “T/C (mean survival treated/control)” value was 191%, the “Tox Deaths” value is 0/10, the “ΔWeight (%)” value is -0.1% and the Survivors is given as 0/10. Moreover, in data set [1] (40 mg/kg i.p. daily×5), the “T/C (mean survival treated/control)” value amounted to 205%, the “Tox Deaths” value was 0/10, the “ΔWeight (%)” value is listed as -7.9% and the Survivors was 1/10. In addition, in data set [1] (dose not stated), the 60-day survivors entry is “one”. In data set [2], half-maximal inhibition (IC50) required 3.95 µM, the “relaxation of supercoiled DNA” value is “inhibition of relaxation of supercoiled DNA” and the “topoisomerase I inhibitory activity” value is given as “quite similar to those of camptothecin”. Besides, the “topoisomerase I inhibition relative to HAR4” value in data set [2] (more inhibitory than HAR4) amounted to 10 times.

The values above are taken from patent US5932709A (University of Michigan, priority 1997, dated 1999).
